Results: PubChem BioAssay (NCI)
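Values below derive from 48-hour exposures of cells grown in 96-well plates, with endpoints linearly interpolated between the two concentrations bracketing the appropriate inhibition level. GI50 is the concentration that inhibits growth by half. TGI: total growth inhibition.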

Columns and labels:
Test in all cases: DTP human tumour cell line panel, 48 h
DU-145 prostate = tested on: DU-145 prostate
LXFL 529 NSCLC = tested on: LXFL 529 NSCLC
A498 renal = tested on: A498 renal
UACC-62 melanoma = tested on: UACC-62 melanoma
COLO 205 colon = tested on: COLO 205 colon
SN12C renal = tested on: SN12C renal
SF-295 CNS = tested on: SF-295 CNS
EKVX NSCLC = tested on: EKVX NSCLC
MOLT-4 leukemia = tested on: MOLT-4 leukemia
HCT-15 colon = tested on: HCT-15 colon
SNB-75 CNS = tested on: SNB-75 CNS
HOP-18 NSCLC = tested on: HOP-18 NSCLC
UO-31 renal = tested on: UO-31 renal
786-0 renal = tested on: 786-0 renal
SW-620 colon = tested on: SW-620 colon
XF 498 CNS = tested on: XF 498 CNS
OVCAR-8 ovarian = tested on: OVCAR-8 ovarian
BT-549 breast = tested on: BT-549 breast
M14 melanoma = tested on: M14 melanoma
LOX IMVI melanoma = tested on: LOX IMVI melanoma
CCRF-CEM leukemia = tested on: CCRF-CEM leukemia
MDA-MB-435 = tested on: MDA-MB-435
DMS 114 small cell lung = tested on: DMS 114 small cell lung
SK-MEL-5 melanoma = tested on: SK-MEL-5 melanoma
IGROV1 ovarian = tested on: IGROV1 ovarian
SR leukemia = tested on: SR leukemia
RXF-631 renal = tested on: RXF-631 renal
SF-539 CNS = tested on: SF-539 CNS
SK-OV-3 ovarian = tested on: SK-OV-3 ovarian
HOP-62 NSCLC = tested on: HOP-62 NSCLC
HT29 colon = tested on: HT29 colon
NCI/ADR-RES ovarian = tested on: NCI/ADR-RES ovarian
OVCAR-3 ovarian = tested on: OVCAR-3 ovarian
MCF7 breast = tested on: MCF7 breast
MDA-MB-231 breast = tested on: MDA-MB-231 breast
SNB-78 CNS = tested on: SNB-78 CNS
SK-MEL-2 melanoma = tested on: SK-MEL-2 melanoma
HOP-92 NSCLC = tested on: HOP-92 NSCLC
KM20L2 colon = tested on: KM20L2 colon
U251 CNS = tested on: U251 CNS
CAKI-1 renal = tested on: CAKI-1 renal
NCI-H522 lung = tested on: NCI-H522 lung
UACC-257 melanoma = tested on: UACC-257 melanoma
MALME-3M melanoma = tested on: MALME-3M melanoma
HCT-116 colon = tested on: HCT-116 colon
RPMI-8226 leukemia = tested on: RPMI-8226 leukemia
SNB-19 CNS = tested on: SNB-19 CNS
KM12 colon = tested on: KM12 colon
A549 NSCLC = tested on: A549 NSCLC
HS 578T breast = tested on: HS 578T breast
T-47D breast = tested on: T-47D breast
OVCAR-4 ovarian = tested on: OVCAR-4 ovarian
NCI-H460 lung = tested on: NCI-H460 lung
PC-3 prostate = tested on: PC-3 prostate
ACHN renal = tested on: ACHN renal
DLD-1 colon = tested on: DLD-1 colon
SF-268 CNS = tested on: SF-268 CNS
DMS 273 small cell lung = tested on: DMS 273 small cell lung
K-562 leukemia = tested on: K-562 leukemia
HL-60(TB) leukemia = tested on: HL-60(TB) leukemia
HCC-2998 colon = tested on: HCC-2998 colon
M19-MEL melanoma = tested on: M19-MEL melanoma
SK-MEL-28 melanoma = tested on: SK-MEL-28 melanoma
NCI-H226 lung = tested on: NCI-H226 lung
NCI-H23 lung = tested on: NCI-H23 lung
OVCAR-5 ovarian = tested on: OVCAR-5 ovarian
RXF 393 renal = tested on: RXF 393 renal
TK-10 renal = tested on: TK-10 renal

## Nc1[nH]c(=O)nc2c1cnn2Cc1ccccc1
DU-145 prostate
  GI50: > 100 µM
  TGI: > 100 µM
LXFL 529 NSCLC
  TGI: > 100 µM
A498 renal
  TGI: > 100 µM
UACC-62 melanoma
  GI50: > 100 µM
  TGI: > 100 µM
COLO 205 colon
  TGI: > 100 µM
SN12C renal
  TGI: > 100 µM
SF-295 CNS
  TGI: > 100 µM
EKVX NSCLC
  TGI: > 100 µM
MOLT-4 leukemia
  TGI: > 100 µM
HCT-15 colon
  TGI: > 100 µM
SNB-75 CNS
  TGI: > 100 µM
HOP-18 NSCLC
  TGI: > 100 µM
UO-31 renal
  TGI: > 100 µM
786-0 renal
  GI50: > 100 µM
  TGI: > 100 µM
SW-620 colon
  TGI: > 100 µM
XF 498 CNS
  TGI: > 100 µM
OVCAR-8 ovarian
  TGI: > 100 µM
BT-549 breast
  GI50: 36.2 µM
  TGI: > 100 µM
M14 melanoma
  TGI: > 100 µM
LOX IMVI melanoma
  TGI: > 100 µM
CCRF-CEM leukemia
  TGI: > 100 µM
MDA-MB-435
  GI50: > 100 µM
  TGI: > 100 µM
DMS 114 small cell lung
  TGI: > 100 µM
SK-MEL-5 melanoma
  TGI: > 100 µM
IGROV1 ovarian
  TGI: > 100 µM
SR leukemia
  TGI: > 100 µM
RXF-631 renal
  TGI: > 100 µM
SF-539 CNS
  TGI: > 100 µM
SK-OV-3 ovarian
  GI50: > 100 µM
  TGI: > 100 µM
HOP-62 NSCLC
  GI50: > 100 µM
  TGI: > 100 µM
HT29 colon
  TGI: > 100 µM
NCI/ADR-RES ovarian
  GI50: > 100 µM
  TGI: > 100 µM
OVCAR-3 ovarian
  GI50: > 100 µM
  TGI: > 100 µM
MCF7 breast
  GI50: > 100 µM
  TGI: > 100 µM
MDA-MB-231 breast
  GI50: > 100 µM
  TGI: > 100 µM
SNB-78 CNS
  TGI: 3.08 µM
SK-MEL-2 melanoma
  TGI: > 100 µM
HOP-92 NSCLC
  TGI: > 100 µM
KM20L2 colon
  TGI: 3.05 µM
U251 CNS
  TGI: 2.73 µM
CAKI-1 renal
  TGI: > 100 µM
NCI-H522 lung
  GI50: > 100 µM
  TGI: > 100 µM
UACC-257 melanoma
  TGI: > 100 µM
MALME-3M melanoma
  TGI: > 100 µM
HCT-116 colon
  TGI: > 100 µM
RPMI-8226 leukemia
  TGI: > 100 µM
SNB-19 CNS
  TGI: > 100 µM
KM12 colon
  TGI: > 100 µM
A549 NSCLC
  TGI: > 100 µM
HS 578T breast
  GI50: > 100 µM
  TGI: > 100 µM
T-47D breast
  GI50: > 100 µM
  TGI: > 100 µM
OVCAR-4 ovarian
  TGI: > 100 µM
NCI-H460 lung
  TGI: > 100 µM
PC-3 prostate
  GI50: > 100 µM
  TGI: > 100 µM
ACHN renal
  TGI: > 100 µM
DLD-1 colon
  TGI: > 100 µM
SF-268 CNS
  TGI: > 100 µM
DMS 273 small cell lung
  TGI: > 100 µM
K-562 leukemia
  TGI: > 100 µM
HL-60(TB) leukemia
  TGI: > 100 µM
HCC-2998 colon
  GI50: > 100 µM
  TGI: > 100 µM

## C[Si]1(C)C(c2ccccc2)=CC2C(c3ccccc3)(c3ccccc3)OC21c1ccccc1 (centres undefined)
LXFL 529 NSCLC
  TGI: > 100 µM
A498 renal
  TGI: > 100 µM
UACC-62 melanoma
  TGI: > 100 µM
COLO 205 colon
  TGI: > 100 µM
SN12C renal
  TGI: > 100 µM
SF-295 CNS
  TGI: > 100 µM
EKVX NSCLC
  TGI: > 100 µM
M19-MEL melanoma
  TGI: > 100 µM
MOLT-4 leukemia
  TGI: > 100 µM
HCT-15 colon
  TGI: > 100 µM
SNB-75 CNS
  TGI: > 100 µM
HOP-18 NSCLC
  TGI: > 100 µM
UO-31 renal
  TGI: > 100 µM
786-0 renal
  TGI: > 100 µM
SW-620 colon
  TGI: > 100 µM
XF 498 CNS
  TGI: > 100 µM
SK-MEL-28 melanoma
  TGI: > 100 µM
NCI-H226 lung
  TGI: > 100 µM
M14 melanoma
  TGI: > 100 µM
LOX IMVI melanoma
  TGI: > 100 µM
CCRF-CEM leukemia
  TGI: > 100 µM
NCI-H23 lung
  TGI: > 100 µM
DMS 114 small cell lung
  TGI: > 100 µM
SK-MEL-5 melanoma
  TGI: > 100 µM
IGROV1 ovarian
  TGI: > 100 µM
OVCAR-5 ovarian
  TGI: > 100 µM
SR leukemia
  TGI: > 100 µM
RXF-631 renal
  TGI: > 100 µM
SF-539 CNS
  TGI: > 100 µM
SK-OV-3 ovarian
  TGI: > 100 µM
HOP-62 NSCLC
  TGI: > 100 µM
HT29 colon
  TGI: > 100 µM
OVCAR-3 ovarian
  TGI: > 100 µM
SK-MEL-2 melanoma
  TGI: > 100 µM
HOP-92 NSCLC
  TGI: > 100 µM
KM20L2 colon
  TGI: > 100 µM
U251 CNS
  TGI: > 100 µM
CAKI-1 renal
  TGI: > 100 µM
NCI-H522 lung
  TGI: > 100 µM
RXF 393 renal
  TGI: > 100 µM
UACC-257 melanoma
  TGI: > 100 µM
MALME-3M melanoma
  TGI: > 100 µM
HCT-116 colon
  TGI: > 100 µM
RPMI-8226 leukemia
  TGI: > 100 µM
SNB-19 CNS
  TGI: > 100 µM
KM12 colon
  TGI: > 100 µM
A549 NSCLC
  TGI: > 100 µM
OVCAR-4 ovarian
  TGI: > 100 µM
TK-10 renal
  TGI: > 100 µM
NCI-H460 lung
  TGI: > 100 µM
ACHN renal
  TGI: > 100 µM
DLD-1 colon
  TGI: > 100 µM
SF-268 CNS
  TGI: > 100 µM
DMS 273 small cell lung
  TGI: > 100 µM
K-562 leukemia
  TGI: > 100 µM
HL-60(TB) leukemia
  TGI: > 100 µM
HCC-2998 colon
  TGI: > 100 µM
